{
  "source": "patent US8114425B2",
  "about": "“Process for the production of wood-based materials” (LANXESS Deutschland GmbH, priority 2008, dated 2012)",
  "key": {"[1]": {"assay": "Investigation of the thermal lability of thiacloprid in NaOH solution", "format": "physicochemical", "conditions": "NaOH solution pH 13.7", "description": "5 g of NaOH were dissolved in 250 ml of distilled water (pH 13.7) and 100 mg of active substance were added. Stirring was then effected for 15 min at different temperatures. The mixture was extracted twice with methylene chloride, neutralized and evaporated down. The residue was weighed and was analysed by NMR, GC, GC-MS or HPLC."}, "[2]": {"tested_on": "Reticulitermes santonensis", "assay": "Termite resistance compulsory test analogous to EN 117 on OSB boards", "format": "in vivo", "conditions": "OSB board with 0.00153% thiacloprid, PF glue outer layers, pressed at 190-200° C.; inspection of the surfaces after 8 weeks", "text": "Pine chips (strands for the production of OSB) whose fine fraction of <6 mm was removed by means of screening were wetted with phenol-formaldehyde glue (PF, manufacturer Georgia Pacific; type GP 155 C 42; pH about 11-13) for the outer layers and with polymethylene diisocyanate glue (PMDI; manufacturer Bayer; type Desmodur 1520 A 20) for the middle layer. The outer and middle layer chips treated in each case were then wetted with an aqueous solution containing 0.5% of thiacloprid and finally in each case with a wax emulsion (Sasolwax Hydrowax 730). The application was effected in each case using an atomizer (spinning disc system) in a chip mixer. The amount of alkaline binder was 4.5% of PF (or 2.5% of PMDI) solid resin mass fraction in the finished OSB board. This corresponds to about 10% mass fraction, based on the chips used, for the PF glue. The aqueous solution containing thiacloprid was used with 2000 ml/m^3 of finished OSB board. At a density of 650 kg/m^3, this corresponds to 0.00153% of thiacloprid, based on the finished OSB board. The proportion of wax was 0.8% by mass, based on the OSB board. The OSB wood composites produced were produced from 60% of PF glue-coated chips as outer layers and 40% of PMDI glue-coated chips as the middle layer in a press at 500 N/cm^2 and with press plate temperatures of 190-200° C. […]"}},
  "data": [
    {"smiles": "N#C/N=C1\\SCCN1Cc1ccc(Cl)nc1", "note": "[thiacloprid]", "values": [
      {"measurement": "stability in NaOH solution", "setting": "[1]; 35° C., 15 min stirring", "result": "stable"},
      {"measurement": "degradation in NaOH solution", "setting": "[1]; 75° C., 15 min stirring", "result": 100, "unit": "%"},
      {"measurement": "degradation in NaOH solution (in words)", "setting": "[1]; 75° C., after only 15 min", "result": "completely degraded"},
      {"measurement": "traces of feeding on test specimen surfaces", "setting": "[2]", "result": "No measurable traces of feeding"}
    ]}
  ]
}
